Experiments:
MCF-7 cells = test: Cell survival rate, WST-8 assay, MCF-7; type: cell-based, human; conditions: 0.1 to 5 μM, FIG. 12B
MCF-7-ADR cells [1] = test: Tumorsphere formation assay (TSA); type: cell-based, human; conditions: 1 μM or 5 μM, vs control, FIG. 3B
Procedure: For incubation of tumorspheres, cells (2000 cells/mL) were suspended and incubated in serum-free DMEM/F12 (welGENE) containing 1% penicillin, B27 (1:50; Gibco; Thermo Fisher), 20 ng/mL of an epidermal growth factor (Prospec, East Brunswick, N.J., (WelGENE) […] of insulin (Sigma-Aldrich, St. Louis, Mo., USA) and 0.4% bovine serum albumin (Sigma-Aldrich). After about 10 days, the plate was analyzed and formation of tumorspheres was verified and quantified with a microscope (Olympus IX71; Olympus, Tokyo, Japan). In order to count the number of tumorspheres, MCF-7-ADR cells were filtered and quantified by a strainer (BD Biosciences, East Rutherford, N.J., USA) having a pore size of 70 μm. Treatment with CRT0066101 was performed on 6-th day and 8-th day after incubation.

GSK3/β-catenin signaling [2] = test: Western blot of GSK3/β-catenin signaling in MCF-7 cells; type: cell-based, human; conditions: FIG. 12A
Procedure: (§1) A total of 30 μg of a protein extract was isolated by 8% SDS-PAGE and the protein was electrophoretically transferred to a PVDF membrane. The primary antibodies used were phosphorylated PKD/PKCμ (Ser916), GSK3β, phosphorylated GSK3α (Ser21)/β (Ser9), and β-catenin. These antibodies were purchased from Cell Signaling Technology (Danvers, Mass., USA) and the PKD/PKCμ antibody was purchased from Santa Cruz Biotechnology. (β-actin (Bethyl Laboratories, Montgomery, Tex., USA) was used as a loading control. The membrane was washed with 1×PBS/0.1% Tween 20 and the bound proteins were detected with an enhanced chemiluminescent reagent (Amersham Pharmacia Biotech, Parsippany, N.J., USA).

[3] = biological target: T1, PRKD1 autophosphorylation (Homo sapiens, UniProt Q15139); conditions: reference [16]; cited from earlier work
T1 sequence (Q15139 1-912): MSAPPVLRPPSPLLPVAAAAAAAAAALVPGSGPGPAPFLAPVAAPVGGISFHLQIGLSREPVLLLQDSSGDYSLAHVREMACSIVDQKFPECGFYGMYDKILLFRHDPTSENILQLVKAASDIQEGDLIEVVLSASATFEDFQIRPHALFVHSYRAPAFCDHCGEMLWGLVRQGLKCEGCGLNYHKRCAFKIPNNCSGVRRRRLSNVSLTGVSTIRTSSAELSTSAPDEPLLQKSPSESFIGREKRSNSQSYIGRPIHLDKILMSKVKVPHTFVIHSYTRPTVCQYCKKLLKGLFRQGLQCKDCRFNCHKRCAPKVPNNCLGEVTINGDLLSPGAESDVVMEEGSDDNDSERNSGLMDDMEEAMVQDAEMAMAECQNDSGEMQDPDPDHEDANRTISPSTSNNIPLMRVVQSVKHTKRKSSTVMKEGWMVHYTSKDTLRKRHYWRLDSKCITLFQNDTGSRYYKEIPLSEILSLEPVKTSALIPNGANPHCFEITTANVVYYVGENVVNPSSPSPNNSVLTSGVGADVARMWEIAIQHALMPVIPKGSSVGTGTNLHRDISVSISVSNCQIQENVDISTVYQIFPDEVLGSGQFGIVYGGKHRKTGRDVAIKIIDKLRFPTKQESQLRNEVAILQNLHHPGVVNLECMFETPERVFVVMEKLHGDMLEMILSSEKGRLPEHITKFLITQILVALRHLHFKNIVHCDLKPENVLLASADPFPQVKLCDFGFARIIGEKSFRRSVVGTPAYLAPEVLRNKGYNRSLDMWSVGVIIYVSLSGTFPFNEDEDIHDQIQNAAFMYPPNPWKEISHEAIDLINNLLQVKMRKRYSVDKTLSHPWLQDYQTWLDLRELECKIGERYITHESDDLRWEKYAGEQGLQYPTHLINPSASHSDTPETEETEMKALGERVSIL

MCF-7-ADR cells [4] = test: Cell survival rate, WST-8 assay, MCF-7-ADR; type: cell-based, human
Procedure: […] Cell survival rate was analyzed by WST-8 assay (Sigma-Aldrich) and an optical density was measured at 450 nm using a microplate reader.

MCF-7-ADR cells [5] = test: CD44+/CD24− surface marker analysis using flow cytometry; type: cell-based, human; conditions: 1 μM, FIG. 3C
Procedure: Cells were collected after transfection with RNAi of PRKD1 or CRT0066101 treatment and expression of CD44 +/CD24-surfaces was evaluated. The cells were washed with 2% FBS, stained with anti-CD44 (APC-conjugated; BD Biosciences) and anti-CD24 (BD Biosciences) in a PBS containing 2% FBS, and placed on ice in the dark for 30 minutes. The cells were washed again with a cold PBS buffer, loaded with >10,000 cells in a BD CantoII flow cytometer (BD Biosciences), and then analyzed by flow cytometry using FACSDiVa software (BD Biosciences).

MCF-7-ADR cells [6] = test: Annexin V and propidium iodide (PI) staining; type: cell-based, human; conditions: FIG. 4E
MCF-7-ADR cells [7] = test: MCF-7-ADR xenograft in nude mice treated with CRT0066101; type: in vivo, mouse
Procedure: A control or miR-32a overexpressed tumor and a carrier or CRT0066101 treated tumor were cut and paraffin-treated slides were used. The paraffin was removed from the slides, rehydrated 3 to 4 times in Histoclear, and then passed sequentially through ethanol at different concentrations (100%, 95%, 80%, and 70%). Antigen reconstitution was performed by immersing fragments in a 0.01M citric acid solution (pH 6.0) and boiling the fragments in a microwave for 15 minutes. In the case of TUNEL analysis, an in-situ apoptosis detection kit, a fluorescent material (Roche, Indianapolis, USA) labeled apoptotic cells, and a Ki-67 primary antibody (Vector Lab, USA) were applied to the fragments and incubated at 4° C. overnight. Thereafter, the slides were incubated with DAPI and secondary antibody for two hours. Finally, the slides were treated with a mounting solution (Dako) and a photograph was taken with a confocal microscope (Zeiss).
All studies, including the use of nude mice, were approved by the committee on animal protection and use of the Yonsei University Medical center (2015-0087) and performed under conditions according to facilities without specific pathogens and the guideline of the committee. Mice were anesthetized with 150 μl saline/zoletil/rompun (7:1:1) outside each femoral region and subcutaneously injected with 1.5×10^6 of MCF-7-ADR cells. Six mice were randomly grouped and started to be treated from 10-th day after tumor graft. […] The tumor size was measured every 3 to 4 days using a caliper from formation of touched tumor to termination and the tumor volume was calculated by Equation of length×width^2×0.5236. The mice were sacrificed in a 7.5% CO2 chamber and tumors were isolated and used for immunohistochemistry and other assays.

GSK3/β-catenin signaling [8] = test: Western blot of PKD/PKCμ phosphorylation and GSK3/β-catenin signaling in MCF-7-ADR cells; type: cell-based, human; conditions: 1 μM or 5 μM, FIG. 3A
Procedure: CRT0066101 was purchased from R&D Systems (Minneapolis, Minn., USA); this drug was resuspended in sterile distilled water and used for in vivo studies. To treat CRT0066101, MCF-7-ADR cells (American Type Culture Collection, Manassas, Va., USA) were seeded and 0.1 to 10 μM CRT0066101 was added and incubated for 1 hour. WST-8 was purchased from Enzo Life Sciences, Inc. (Farmingdale, N.Y., USA). PRKD1 siRNA and scrambled siRNA (Santa Cruz Biotechnology, Santa Cruz, Calif., USA) were transfected by using Lipofectamine RNAiMAX (Invitrogen, Carlsbad, Calif., USA).
as §1

[9] = treated tumor vs control, FIG. 5G

Compound | cell survival rate (MCF-7 cells) | number of tumorspheres (>70 μm) (MCF-7-ADR cells [1]) | GSK3/β-catenin signaling (GSK3/β-catenin signaling [2]) | growth of pancreatic cancer [3] | cell survival rate (MCF-7-ADR cells [4]; MCF-7-ADR cells, 0.1 to 5 μM, FIG. 4C) | cell survival rate, combination with doxorubicin (MCF-7-ADR cells [4]; MCF-7-ADR, CRT0066101 combined with doxorubicin, vs CRT0066101 alone, FIG. 4D) | number (Q1) of CD44+/CD24− (MCF-7-ADR cells [5]) | level of apoptosis in doxorubicin-treated cells (MCF-7-ADR cells [6]; CRT0066101 added to doxorubicin-treated cells) | side effects (sign of toxicity, weight loss) (MCF-7-ADR cells [7]; 65 mg/kg daily for 4 weeks, all animals, FIG. 5E) | tumor size (MCF-7-ADR cells [7]; 65 mg/kg daily for 4 weeks, oral, vs untreated control, FIG. 5D) | tumor weight (MCF-7-ADR cells [7]; 65 mg/kg daily for 4 weeks, vs control tumor, FIG. 5E) | change in mouse's weight (MCF-7-ADR cells [7]; 65 mg/kg orally daily for 4 weeks, FIG. 5E) | volume of tumor (MCF-7-ADR cells [7]; 65 mg/kg orally daily for 4 weeks, vs control tumor, FIG. 5E) | apoptosis in tumor, TUNEL analysis (MCF-7-ADR cells [7]; [9]) | proliferation in tumor, Ki-67 staining (MCF-7-ADR cells [7]; [9]) | phosphorylated PKD/PKCμ through GSK3/β-catenin signaling in tumor (MCF-7-ADR cells [7]; western blot of tumor, FIG. 5F) | phosphorylation of PKD/PKCμ and GSK3/β-catenin (GSK3/β-catenin signaling [8]) | cell survival rate (MCF-7-ADR cells [4]; MCF-7-ADR cells exposed to doxorubicin at different doses, FIG. 4A) | initiation of apoptosis (MCF-7-ADR cells [6]; treated cells vs control)
CC[C@@H](N)CNc1ccnc(-c2cc(-c3cnn(C)c3)ccc2O)n1.Cl.Cl [CRT0066101] | did not decrease | decreased dose-dependently | not affected | blocked growth | decreased cell survival rate dose-dependently | significantly lowered | also decreased | increased | did not cause side effects | reduced | reduced | not detected | reduced | apoptosis increased | proliferation decreased | down regulation | inhibited |  | 
COc1cccc2c1C(=O)c1c(O)c3c(c(O)c1C2=O)C[C@@](O)(C(=O)CO)C[C@@H]3O[C@H]1C[C@H](N)[C@H](O)[C@H](C)O1 [doxorubicin] |  |  |  |  |  |  |  |  |  |  |  |  |  |  |  |  |  | reduced dose-dependently | increased
